In patent EP0411334B1, “Antiherpes pentapeptide derivatives having a substituted aspartic acid side chain” (BIO-MEGA/BOEHRINGER INGELHEIM RESEARCH INC., priority 1989, dated 1991):
Where a SMILES comes first, the peptide text is derived from it. [ ]: non-standard residue; d: D form. The star is where a group is joined. Dihydrocaffeoyl = O=C(CCc1ccc(O)c(O)c1)*; Benzoyl(2-Ph) = O=C(c1ccccc1-c1ccccc1)*; Desaminotyrosyl = O=C(CCc1ccc(O)cc1)*; Hydrocinnamoyl = O=C(CCc1ccccc1)*; N(Me)CH2CH2Ph = CN(CCc1ccccc1)*; Pentanoyl(4-Me) = CC(C)CCC(=O)*; O(2S-octyl) = CCCCCC[C@H](C)O*; NHPhenethyl = c1ccc(CCN*)cc1; NMeV = CN[C@H](C(=O)O)C(C)C; Morpholide = C1CN(*)CCO1; Pyrrolidide = C1CCN(*)C1; NiPr2 = CC(C)N(C(C)C)*; X1 = CCCCCC[C@@H](C)O*; X3 = c1ccc(CCCO*)cc1; X8 = CN(CCc1ccccn1)*; Bz = O=C(c1ccccc1)*; NHPh = c1ccc(N*)cc1; N(Me)OMe = CON(C)*; NEt2 = CCN(CC)*

Target: HSV-1 ribonucleotide reductase (Human herpesvirus 1, UniProt P08543)
Sequence (P08543 whole entry): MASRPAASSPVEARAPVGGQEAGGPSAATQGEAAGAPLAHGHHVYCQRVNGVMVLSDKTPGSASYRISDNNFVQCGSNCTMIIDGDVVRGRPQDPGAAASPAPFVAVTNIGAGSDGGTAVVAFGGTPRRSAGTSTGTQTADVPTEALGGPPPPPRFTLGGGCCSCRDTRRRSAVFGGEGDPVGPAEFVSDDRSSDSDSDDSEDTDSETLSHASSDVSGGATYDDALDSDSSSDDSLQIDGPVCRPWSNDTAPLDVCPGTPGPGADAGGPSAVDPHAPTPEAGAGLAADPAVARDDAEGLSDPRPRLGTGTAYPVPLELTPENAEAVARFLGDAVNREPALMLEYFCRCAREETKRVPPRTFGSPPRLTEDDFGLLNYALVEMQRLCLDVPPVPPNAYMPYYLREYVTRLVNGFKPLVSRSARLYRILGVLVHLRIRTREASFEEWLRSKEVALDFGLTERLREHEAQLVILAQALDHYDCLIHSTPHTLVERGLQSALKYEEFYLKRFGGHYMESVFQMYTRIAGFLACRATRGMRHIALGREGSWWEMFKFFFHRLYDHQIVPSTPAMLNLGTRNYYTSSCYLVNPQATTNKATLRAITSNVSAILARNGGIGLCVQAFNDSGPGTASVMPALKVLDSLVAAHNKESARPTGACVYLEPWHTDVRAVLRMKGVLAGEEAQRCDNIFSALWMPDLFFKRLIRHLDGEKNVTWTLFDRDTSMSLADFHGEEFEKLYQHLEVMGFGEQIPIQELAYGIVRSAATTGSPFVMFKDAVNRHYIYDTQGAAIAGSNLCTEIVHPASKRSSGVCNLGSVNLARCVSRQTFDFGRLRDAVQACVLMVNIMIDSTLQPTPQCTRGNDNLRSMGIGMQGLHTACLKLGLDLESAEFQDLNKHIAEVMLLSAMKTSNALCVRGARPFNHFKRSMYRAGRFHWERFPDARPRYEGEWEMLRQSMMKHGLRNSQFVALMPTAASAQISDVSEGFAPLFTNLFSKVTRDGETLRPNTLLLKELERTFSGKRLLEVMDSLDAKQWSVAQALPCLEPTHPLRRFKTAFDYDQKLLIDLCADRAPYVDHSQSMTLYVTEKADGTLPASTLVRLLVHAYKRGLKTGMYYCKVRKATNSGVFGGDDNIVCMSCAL
Experiment: biochemical
Excerpt: Inhibition of Herpes Simplex Virus (HSV, type 1) Ribonucleotide Reductase
• a) Preparation of Enzyme HSV-1 ribonucleotide reductase (partially purified) was obtained from quiescent BHK-21/C13 cells infected with strain F HSV-1 virus at 10 plaque forming units/cell as described by E.A. Cohen et al., J. Gen. […] The number of units of the enzyme preparation used in each assay was constant, based on the specific activity of the enzyme preparation.

Structure (SMILES)	IC50 [nM]
CCCCCC[C@H](C)OC(=O)C[C@H](NC(=O)[C@@H](NC(=O)[C@H](C(C)C)N(C)C(=O)CCc1ccccc1)[C@@H](C)CC)C(=O)N[C@@H](CC(=O)O)C(=O)N[C@@H](CC(C)C)C(=O)O [Entry 1] (Hydrocinnamoyl-[NMeV]ID(O(2S-octyl))DL-OH)	700
CCCCCC[C@@H](C)OC(=O)C[C@H](NC(=O)[C@@H](NC(=O)[C@H](C(C)C)N(C)C(=O)CCc1ccccc1)[C@@H](C)CC)C(=O)N[C@@H](CC(=O)O)C(=O)N[C@@H](CC(C)C)C(=O)O [Entry 2] (Hydrocinnamoyl-[NMeV]ID(X1)DL-OH)	700
CC[C@H](C)[C@H](NC(=O)[C@H](C(C)C)N(C)C(=O)CCc1ccccc1)C(=O)N[C@@H](CC(=O)N(C)C)C(=O)N[C@@H](CC(=O)O)C(=O)N[C@@H](CC(C)C)C(=O)O [Entry 3] (Hydrocinnamoyl-[NMeV]ID(NMe2)DL-OH)	190
CC[C@H](C)[C@H](NC(=O)[C@H](C(C)C)N(C)C(=O)CCc1ccccc1)C(=O)N[C@@H](CC(=O)N(CC)CC)C(=O)N[C@@H](CC(=O)O)C(=O)N[C@@H](CC(C)C)C(=O)O [Entry 4] (Hydrocinnamoyl-[NMeV]ID(NEt2)DL-OH)	260
CC[C@H](C)[C@H](NC(=O)[C@H](C(C)C)N(C)C(=O)CCc1ccccc1)C(=O)N[C@@H](CC(=O)N(C(C)C)C(C)C)C(=O)N[C@@H](CC(=O)O)C(=O)N[C@@H](CC(C)C)C(=O)O [Entry 5] (Hydrocinnamoyl-[NMeV]ID(NiPr2)DL-OH)	250
CC[C@H](C)[C@H](NC(=O)[C@H](C(C)C)N(C)C(=O)CCc1ccccc1)C(=O)N[C@@H](CC(=O)N1CCCC1)C(=O)N[C@@H](CC(=O)O)C(=O)N[C@@H](CC(C)C)C(=O)O [Entry 6] (Hydrocinnamoyl-[NMeV]ID(Pyrrolidide)DL-OH)	110
CC[C@H](C)[C@H](NC(=O)[C@H](C(C)C)N(C)C(=O)CCc1ccccc1)C(=O)N[C@@H](CC(=O)N1CCOCC1)C(=O)N[C@@H](CC(=O)O)C(=O)N[C@@H](CC(C)C)C(=O)O [Entry 7] (Hydrocinnamoyl-[NMeV]ID(Morpholide)DL-OH)	180
CC[C@H](C)[C@H](NC(=O)[C@H](C(C)C)N(C)C(=O)CCc1ccccc1)C(=O)N[C@@H](CC(=O)N(C)OC)C(=O)N[C@@H](CC(=O)O)C(=O)N[C@@H](CC(C)C)C(=O)O [Entry 8] (Hydrocinnamoyl-[NMeV]ID(N(Me)OMe)DL-OH)	190
CC[C@H](C)[C@H](NC(=O)[C@H](C(C)C)N(C)C(=O)CCc1ccc(O)cc1)C(=O)N[C@@H](CC(=O)OCCCc1ccccc1)C(=O)N[C@@H](CC(=O)O)C(=O)N[C@@H](CC(C)C)C(=O)O [Entry 9] (Desaminotyrosyl-[NMeV]ID(X3)DL-OH)	650
CC[C@H](C)[C@H](NC(=O)[C@H](C(C)C)N(C)C(=O)CCc1ccc(O)cc1)C(=O)N[C@@H](CC(=O)Nc1ccccc1)C(=O)N[C@@H](CC(=O)O)C(=O)N[C@@H](CC(C)C)C(=O)O [Entry 10] (Desaminotyrosyl-[NMeV]ID(NHPh)DL-OH)	1600
CC[C@H](C)[C@H](NC(=O)[C@H](C(C)C)N(C)C(=O)CCc1ccc(O)cc1)C(=O)N[C@@H](CC(=O)NCCc1ccccc1)C(=O)N[C@@H](CC(=O)O)C(=O)N[C@@H](CC(C)C)C(=O)O [Entry 11] (Desaminotyrosyl-[NMeV]ID(NHPhenethyl)DL-OH)	510
CC[C@H](C)[C@H](NC(=O)[C@H](C(C)C)N(C)C(=O)CCc1ccc(O)cc1)C(=O)N[C@@H](CC(=O)N(C)C)C(=O)N[C@@H](CC(=O)O)C(=O)N[C@@H](CC(C)C)C(=O)O [Entry 12] (Desaminotyrosyl-[NMeV]ID(NMe2)DL-OH)	90
CC[C@H](C)[C@H](NC(=O)[C@H](C(C)C)N(C)C(=O)CCc1ccc(O)cc1)C(=O)N[C@@H](CC(=O)N(CC)CC)C(=O)N[C@@H](CC(=O)O)C(=O)N[C@@H](CC(C)C)C(=O)O [Entry 13, DAT-N-Me-Val-Ile-Asp(NEt₂)-Asp-Leu-OH] (Desaminotyrosyl-[NMeV]ID(NEt2)DL-OH)	270
CC[C@H](C)[C@H](NC(=O)[C@H](C(C)C)N(C)C(=O)CCc1ccc(O)cc1)C(=O)N[C@@H](CC(=O)N(C)CCc1ccccc1)C(=O)N[C@@H](CC(=O)O)C(=O)N[C@@H](CC(C)C)C(=O)O [Entry 14] (Desaminotyrosyl-[NMeV]ID(N(Me)CH2CH2Ph)DL-OH)	380
CC[C@H](C)[C@H](NC(=O)[C@H](C(C)C)N(C)C(=O)CCc1ccc(O)cc1)C(=O)N[C@@H](CC(=O)N(C)CCc1ccccn1)C(=O)N[C@@H](CC(=O)O)C(=O)N[C@@H](CC(C)C)C(=O)O [Entry 15] (Desaminotyrosyl-[NMeV]ID(X8)DL-OH)	290
CC[C@H](C)[C@H](NC(=O)[C@H](C(C)C)N(C)C(=O)CCc1ccc(O)cc1)C(=O)N[C@@H](CC(=O)N1CCOCC1)C(=O)N[C@@H](CC(=O)O)C(=O)N[C@@H](CC(C)C)C(=O)O [Entry 16] (Desaminotyrosyl-[NMeV]ID(Morpholide)DL-OH)	370
CC[C@H](C)[C@H](NC(=O)[C@@H](NC(=O)CCc1ccc(O)cc1)C(C)C)C(=O)N[C@@H](CC(=O)NCCc1ccccc1)C(=O)N[C@@H](CC(=O)O)C(=O)N[C@@H](CC(C)C)C(=O)O [Entry 17] (Desaminotyrosyl-VID(NHPhenethyl)DL-OH)	1700
CCNC(=O)C[C@H](NC(=O)[C@@H](NC(=O)[C@@H](NC(=O)CCc1ccc(O)cc1)C(C)C)[C@@H](C)CC)C(=O)N[C@@H](CC(=O)O)C(=O)N[C@@H](CC(C)C)C(=O)O [Entry 18] (Desaminotyrosyl-VID(NHEt)DL-OH)	1750
CC[C@H](C)[C@H](NC(=O)[C@@H](NC(=O)CCc1ccc(O)cc1)C(C)C)C(=O)N[C@@H](CC(=O)N(CC)CC)C(=O)N[C@@H](CC(=O)O)C(=O)N[C@@H](CC(C)C)C(=O)O [Entry 19] (Desaminotyrosyl-VID(NEt2)DL-OH)	560
CC[C@H](C)[C@H](NC(=O)[C@@H](NC(=O)CCc1ccc(O)cc1)C(C)C)C(=O)N[C@@H](CC(=O)N(C)CCc1ccccc1)C(=O)N[C@@H](CC(=O)O)C(=O)N[C@@H](CC(C)C)C(=O)O [Entry 20] (Desaminotyrosyl-VID(N(Me)CH2CH2Ph)DL-OH)	550
CC[C@H](C)[C@H](NC(=O)[C@@H](NC(=O)c1ccccc1-c1ccccc1)C(C)C)C(=O)N[C@@H](CC(=O)NCCc1ccccc1)C(=O)N[C@@H](CC(=O)O)C(=O)N[C@@H](CC(C)C)C(=O)O [Entry 21, 2-Biphenylylcarbonyl-Val-Ile-Asp-(NHCH₂CH₂Ph)-Asp-Leu-OH] ({Benzoyl(2-Ph)}-VID(NHPhenethyl)DL-OH)	1250
CC[C@H](C)[C@H](NC(=O)[C@@H](NC(=O)c1ccccc1)C(C)C)C(=O)N[C@@H](CC(=O)NCCc1ccccc1)C(=O)N[C@@H](CC(=O)O)C(=O)N[C@@H](CC(C)C)C(=O)O [Entry 22, Benzoyl-Val-Ile-Asp-(NHCH₂CH₂Ph)-Asp-Leu-OH] (Bz-VID(NHPhenethyl)DL-OH)	7600
CC[C@H](C)[C@H](NC(=O)[C@@H](NC(C)=O)C(C)C)C(=O)N[C@@H](CC(=O)NCCc1ccccc1)C(=O)N[C@@H](CC(=O)O)C(=O)N[C@@H](CC(C)C)C(=O)O [Entry 23, Ac-Val-Ile-Asp(NHCH₂CH₂Ph)-Asp-Leu-OH] (Ac-VID(NHPhenethyl)DL-OH)	18000
CC[C@H](C)[C@H](NC(=O)[C@H](C(C)C)N(C)C(=O)CCC(C)C)C(=O)N[C@@H](CC(=O)N(CC)CC)C(=O)N[C@@H](CC(=O)O)C(=O)N[C@@H](CC(C)C)C(=O)O [Entry 25, 4-Methylpentanoyl-N-Me-Val-Ile-Asp(NEt₂)-Asp-Leu-OH] ({Pentanoyl(4-Me)}-[NMeV]ID(NEt2)DL-OH)	500
CCN(CC)C(=O)C[C@H](NC(=O)[C@@H](NC(=O)[C@H](C(C)C)N(C)C(=O)CCc1ccccc1)[C@@H](C)O)C(=O)N[C@@H](CC(=O)O)C(=O)N[C@@H](CC(C)C)C(=O)O [Entry 26, PhCH₂CH₂CO-N-Me-Val-Thr-Asp(NEt₂)-Asp-Leu-OH] (Hydrocinnamoyl-[NMeV]TD(NEt2)DL-OH)	300
CC[C@H](C)[C@H](NC(=O)[C@H](C(C)C)N(C)C(=O)CCc1ccccc1)C(=O)N[C@@H](CC(=O)N1CCOCC1)C(=O)N[C@@H](CC(=O)O)C(=O)N[C@@H](CC(C)C)C(=O)N(CC)CC [Entry 27, PhCH₂CH₂CO-N-Me-Val-Ile-Asp(morpholino)-Asp-Leu-NEt₂] (Hydrocinnamoyl-[NMeV]ID(Morpholide)DL-NEt2)	2600
CC[C@H](C)[C@H](NC(=O)[C@H](C(C)C)N(C)C(=O)CCc1ccc(O)c(O)c1)C(=O)N[C@@H](CC(=O)N1CCCC1)C(=O)N[C@@H](CC(=O)O)C(=O)N[C@@H](CC(C)C)C(=O)O [Entry 28, (3,4-Dihydroxy-Ph)-CH₂CH₂CO-N-Me-Val-Ile-Asp(pyrrolidino)-Asp-Leu-OH] (Dihydrocaffeoyl-[NMeV]ID(Pyrrolidide)DL-OH)	250
